{"source": "patent US20220249637A1", "about": "“COMBINATION THERAPY OF A CELL-MEDIATED CYTOTOXIC THERAPY AND AN INHIBITOR OF A PROSURVIVAL BCL2 FAMILY PROTEIN” (Juno Therapeutics, Inc., priority 2019, published 2022)", "type_in_all_cases": "cell-based", "key": {"SUDHL6": {"system": "SUDHL6", "test": "NucLight Red target cell killing by live cell imaging", "conditions": "venetoclax alone, 200 nM", "experimental": "(§1) The cytolytic activity of anti-CD19 CAR T cells against two additional CD19-expressing lymphoma target cells lines, SUDHL6 and WSU-DLCL2, was assessed and compared to cytolytic activity against K562.CD19 target cells. Target cells were engineered with a lentiviral reagent to express NucLight Red (NLR) to permit tracking of target cells by microscopy. Anti-CD19 CAR-expressing T cell compositions were generated from two human adult donors, substantially as described above. Target cells were co-cultured with the donor-derived CAR T cell compositions for up to 120 hours at an E:T ratio of 2.5:1. Red target cell counts were tracked over time by live cell imaging and counts were normalized to the number of red target cells at baseline to determine the fold-change in target cells over time.\n(§2) Anti-CD19 CAR-expressing T cell compositions were generated as described in Example 1 and were cultured with a CD19-expressing lymphoma target cell lines, either SUDHL6, WSU-DLCL2, or Granta-519 at an E:T ratio of 2.5:1. The co-cultures were carried out in the presence of 20 nM or 200 nM of the exemplary BCL2 inhibitor, venetoclax. As controls, target tumor cell lines were incubated only in the presence of the inhibitor or the anti-CD19 CAR T cells. Target cells were labeled with NucLight Red (NLR) to permit tracking of target cells by microscopy and target cell killing was monitored by the loss of fluorescent signal over time, substantially as described in Example 1."}, "WSU-DLCL2": {"system": "WSU-DLCL2", "test": "NucLight Red target cell killing by live cell imaging", "experimental": "as §1, §2"}, "JeKo-1 target cells": {"system": "JeKo-1 target cells", "test": "JeKo-1 target cell co-culture for 100 hours", "experimental": "Further, the cytolytic activity of anti-CD19 CAR T cells was not affected when co-cultured with JeKo-1 target cells for 100 hours in the presence of 1.0 μM venetoclax."}}, "data": [{"compound": "CC1(C)CCC(CN2CCN(c3ccc(C(=O)NS(=O)(=O)c4ccc(NCC5CCOCC5)c([N+](=O)[O-])c4)c(Oc4cnc5[nH]ccc5c4)c3)CC2)=C(c2ccc(Cl)cc2)C1", "note": "[venetoclax]", "values": [{"measurement": "tumor cell killing", "setting": "SUDHL6", "result": "killing of the sensitive tumor cell line SUDHL6 was achieved"}, {"measurement": "CD19-directed CAR T cell killing", "setting": "WSU-DLCL2; co-culture with anti-CD19 CAR T cells E:T 2.5:1, 20 or 200 nM venetoclax", "result": "enhanced"}, {"measurement": "tumor cell killing", "setting": "WSU-DLCL2; venetoclax alone, 20 nM or 200 nM", "result": "did not substantially impact tumor cell killing"}, {"measurement": "cytolytic activity of anti-CD19 CAR T cells", "setting": "JeKo-1 target cells; 1.0 μM venetoclax, 100 hours", "result": "not affected"}, {"measurement": "number of JeKo-1 target cells", "setting": "JeKo-1 target cells; venetoclax alone", "result": "not reduced"}]}]}
